The test concerns the target canine TRPM8 (Canis lupus familiaris, UniProt Q1A7N1). Kind of test: In Vitro Canine TRPM8 Functional Assay (Ca2+ fluorescence, icilin activation). Format: cell-based. Particulars: for IC50: read-out: IC50; for inhibition at 0.2 µM: read-out: % Inh @ 0.2; for inhibition at 0.5 µM: compound at 0.5 μM, read-out: % Inh @ 0.5. On the procedure: The functional activity of compounds of the formula (I) was determined by measuring changes in intracellular calcium concentration using a Ca^2+-sensitive fluorescent dye. The changes in fluorescent signal were monitored by a fluorescence plate reader, either a FLIPR™ (Molecular Devices) or FDSS (Hamamatsu).
At 24 hrs prior to assay, HEK293 cells stably expressing canine TRPM8 were seeded in culture medium in black wall, clear-base poly-D-lysine coated 384-well plates (BD Biosciences, NJ, USA) and grown overnight in 5% CO2 at 37° C. On assay day, growth media was removed and cells were loaded with Calcium 3 Dye (Molecular Devices) for 35 min at 37° C., under 5% CO2 and then for 25 min at room temperature and atmosphere. Subsequently, cells were tested for agonist-induced increases in intracellular Ca^2+ levels using FLIPR™ or FDSS. Cells were challenged with a compound of the Formula (I) (at varying concentrations) and intracellular Ca^2+ was measured for 5 min prior to the addition of icilin to all wells to achieve a final concentration that produces approximately an 80% maximal response. EC50 or IC50 values for compounds of the present invention were determined from eight-point dose-response studies. Curves were generated using the average of quadruplicate wells for each data point.

Setting [1] is: HEK293 cells stably expressing canine TRPM8, icilin activation, eight-point dose-response.
Where [2] appears, read: compound at 0.2 μM, canine TRPM8, icilin activation.
[3] abbreviates: canine TRPM8, icilin activation.

Consider 28 molecules from patent US9434711B2 (Janssen Pharmaceutica, NV, priority 2007, dated 2016).

The IC50 is the concentration needed to halve the response being measured.

Where two headings read alike, the source gives them in different places.

Chain of canine TRPM8 (Q1A7N1 1-1104): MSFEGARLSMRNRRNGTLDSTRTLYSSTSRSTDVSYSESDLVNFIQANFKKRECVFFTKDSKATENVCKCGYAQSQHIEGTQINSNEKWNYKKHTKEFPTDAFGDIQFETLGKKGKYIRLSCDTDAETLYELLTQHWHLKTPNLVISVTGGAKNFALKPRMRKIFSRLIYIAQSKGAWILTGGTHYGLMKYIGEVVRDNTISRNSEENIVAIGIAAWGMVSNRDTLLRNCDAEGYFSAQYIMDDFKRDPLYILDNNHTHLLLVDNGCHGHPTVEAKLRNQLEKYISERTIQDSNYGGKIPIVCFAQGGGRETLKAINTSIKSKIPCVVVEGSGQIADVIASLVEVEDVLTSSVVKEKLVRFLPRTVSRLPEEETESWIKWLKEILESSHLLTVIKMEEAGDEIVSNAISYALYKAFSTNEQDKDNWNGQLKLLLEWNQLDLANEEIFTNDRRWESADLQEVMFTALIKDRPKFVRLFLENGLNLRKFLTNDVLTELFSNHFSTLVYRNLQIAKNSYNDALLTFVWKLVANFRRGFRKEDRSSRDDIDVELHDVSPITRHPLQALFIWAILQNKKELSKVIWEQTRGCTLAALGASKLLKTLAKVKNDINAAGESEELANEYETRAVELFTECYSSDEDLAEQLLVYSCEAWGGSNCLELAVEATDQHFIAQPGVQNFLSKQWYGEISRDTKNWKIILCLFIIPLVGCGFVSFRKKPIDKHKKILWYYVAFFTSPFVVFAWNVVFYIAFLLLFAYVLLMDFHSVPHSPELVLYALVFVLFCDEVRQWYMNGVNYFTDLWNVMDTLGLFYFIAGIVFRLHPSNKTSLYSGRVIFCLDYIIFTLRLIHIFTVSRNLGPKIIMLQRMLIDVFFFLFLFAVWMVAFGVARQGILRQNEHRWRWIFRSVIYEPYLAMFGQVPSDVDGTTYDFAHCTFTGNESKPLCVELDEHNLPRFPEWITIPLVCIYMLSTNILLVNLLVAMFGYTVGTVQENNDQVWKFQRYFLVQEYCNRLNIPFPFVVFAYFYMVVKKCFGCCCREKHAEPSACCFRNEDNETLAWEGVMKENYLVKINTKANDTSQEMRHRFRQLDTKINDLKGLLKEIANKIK

As for `Cc1c(N(Cc2ccc(F)c(C(F)(F)F)c2)S(=O)(=O)c2ccc(-c3csnn3)cc2)sc2ccccc12` [Compound 69, N-(4-Fluoro-3-trifluoromethyl-benzyl)-N-(3-methyl-benzo[b]thiophen-2-yl)-4-[1,2,3]thiadiazol-4-yl-benzenesulfonamide], the IC50 under setting [1] came out at 0.003 µM. For the same molecule, the inhibition at 0.2 µM under setting [2] is 96%.

As to `O=c1[nH]c(-c2ccc(S(=O)(=O)N(CCCCC(F)(F)F)c3sc4ccccc4c3Cl)cc2)no1` [Compound 584, N-(3-Chloro-benzo[b]thiophen-2-yl)-N-(5,5,5-trifluoro-pentyl)-4-(5-oxo-4,5-dihydro-[1,2,4]oxadiazol-3-yl)-benzenesulfonamide], the IC50 under setting [1] was 0.0159 µM. For the same molecule, under setting [2], the inhibition at 0.2 µM worked out at 100%.

`Cc1c(N(Cc2ccc(F)c(F)c2)S(=O)(=O)c2ccccc2F)sc2ccccc12` [Compound 128, N-(3,4-Difluoro-benzyl)-N-(3-methyl-benzo[b]thiophen-2-yl)-2-fluoro-benzenesulfonamide]: the IC50 under setting [1] stood at 0.009 µM. Besides, under setting [3], the inhibition at 0.5 µM was determined as 99%.

Take `COC(=O)c1ccc(S(=O)(=O)N(CCCC(F)(F)F)c2sc3cc(F)ccc3c2C)cc1` [Compound 412, N-(6-Fluoro-3-methyl-benzo[b]thiophen-2-yl)-N-(4,4,4-trifluoro-butyl)-4-carbomethoxybenzenesulfonamide]: the inhibition at 0.2 µM under setting [2] worked out at 13%.

With `Cc1c(N(CCCCC(F)(F)F)S(=O)(=O)CCC(=O)O)sc2ccccc12` [Compound 606, N-(3-Methyl-benzo[b]thiophen-2-yl)-N-(5,5,5-trifluoro-pentyl)-2-carboxy-ethanesulfonamide], under setting [1], the IC50 is 0.0905 µM. Moreover, the inhibition at 0.2 µM under setting [2] came to 75%.

For `CCCCCCN(c1sc2ccccc2c1Br)S(=O)(=O)c1ccccc1` [Compound 248, N-(3-Bromo-benzo[b]thiophen-2-yl)-N-(hexyl)-benzenesulfonamide], the IC50 under setting [1] amounted to 0.0083 µM. Also, under setting [2], the inhibition at 0.2 µM came to 98%.

For the molecule `CCCCN(c1sc2ccccc2c1C)S(=O)(=O)c1cccnc1N(C)C` [Compound 448, N-(3-Methyl-benzo[b]thiophen-2-yl)-N-(butyl)-2-dimethylamino-pyridin-3-yl-sulfonamide], under setting [1], the IC50 was found to be 0.012 µM. Further, the inhibition at 0.2 µM under setting [2] was determined as 102%.

On to `O=S(=O)(c1ccc(C(F)(F)F)cc1)N(Cc1ccc(F)c(F)c1)c1sc2ccccc2c1Br` [Compound 156, N-(3-Bromo-benzo[b]thiophen-2-yl)-N-(3,4-difluoro-benzyl)-4-trifluoromethyl-benzenesulfonamide], for which the inhibition at 0.5 µM under setting [3] is 65%.

As to `CCS(=O)(=O)N(Cc1ccc(F)c(C(F)(F)F)c1)c1sc2ccccc2c1-c1ccsc1` [Compound 202, N-(4-Fluoro-3-trifluoromethyl-benzyl)-N-(3-thiophen-3-yl-benzo[b]thiophen-2-yl)-ethanesulfonamide], under setting [2], the inhibition at 0.2 µM was 32%.

Turning to `O=c1[nH]c(-c2ccc(S(=O)(=O)N(Cc3ccc(F)c(C(F)(F)F)c3)c3sc4ccccc4c3Cl)cc2)no1` [Compound 512, N-(3-Chloro-benzo[b]thiophen-2-yl)-N-(4-fluoro-3-trifluoromethyl-benzyl)-4-(5-oxo-4,5-dihydro-[1,2,4]oxadiazol-3-yl)-benzenesulfonamide], the IC50 under setting [1] amounted to 0.004 µM. The inhibition at 0.2 µM under setting [2] stood at 102%.

For the molecule `O=S(=O)(c1ccccc1)N(CC(F)F)c1sc2ccccc2c1Br` [Compound 242, N-(3-Bromo-benzo[b]thiophen-2-yl)-N-(2,2-difluoro-ethyl)-benzenesulfonamide], the IC50 under setting [1] stood at 0.0382 µM. For the same molecule, the inhibition at 0.2 µM under setting [2] came out at 95%.

For the molecule `CC(=O)c1c(N(CCCF)S(=O)(=O)c2ccccc2)sc2ccccc12` [Compound 833, N-(3-Acetyl-benzo[b]thiophen-2-yl)-N-(3-fluoro-propyl)-benzenesulfonamide], the inhibition at 0.2 µM (0.2 μM compound, HEK293 cells stably expressing canine TRPM8, icilin activation) stood at 102%. Besides, the IC50 (HEK293 cells stably expressing canine TRPM8, icilin activation, average of two or more determinations) stood at 0.013 µM.

For the molecule `Cc1c(N(Cc2ccc(F)c(F)c2)S(=O)(=O)c2ccc3ncccc3c2)sc2ccccc12` [Compound 30, N-(3,4-Difluoro-benzyl)-N-(3-methyl-benzo[b]thiophen-2-yl)-quinoline-6-sulfonamide], the IC50 under setting [1] was 0.012 µM. In addition, under setting [3], the inhibition at 0.5 µM is 100%.

`N/C(=N\O)c1ccc(S(=O)(=O)N(Cc2ccc(F)c(C(F)(F)F)c2)c2cc3ccccc3s2)cc1` [Compound 482, N-(Benzo[b]thiophen-2-yl)-N-(4-fluoro-3-trifluoromethyl-benzyl)-4-N-hydroxy-benzamidinesulfonamide]: under setting [1], the half-maximal inhibitory concentration (IC50) is 0.024 µM. Moreover, the “% Inh @ 0.2 (μM)” value under setting [2] is on record as 100%.

With `O=c1[nH]c(-c2ccc(S(=O)(=O)N(CCC(F)(F)F)c3sc4ccccc4c3Br)cc2)ns1` [Compound 708, N-(3-Bromo-benzo[b]thiophen-2-yl)-N-(3,3,3-trifluoro-propyl)-4-(5-oxo-4,5-dihydro-[1,2,4]thiadiazol-3-yl)-benzenesulfonamide], under setting [1], the IC50 came to 0.013 µM. For the same molecule, the inhibition at 0.2 µM under setting [2] was determined as 102%.

On to `Cc1c(N(Cc2cccc3cccnc23)S(=O)(=O)c2ccsc2)sc2ccccc12` [Compound 17, N-(3-Methyl-benzo[b]thiophen-2-yl)-N-(quinolin-8-ylmethyl)-thiophene-3-sulfonamide], for which the IC50 under setting [1] turned out to be 0.022 µM. Under setting [3], the inhibition at 0.5 µM worked out at 97%.

As for `Cc1c(N(Cc2ccc(F)c(C(F)(F)F)c2)S(C)(=O)=O)sc2ccccc12` [Compound 368, N-(4-Fluoro-3-trifluoromethyl-benzyl)-N-(3-methyl-benzo[b]thiophen-2-yl)-methanesulfonamide], the IC50 under setting [1] was 0.018 µM. Moreover, the inhibition at 0.2 µM under setting [2] stood at 96%.

In the case of `Cc1c(N(CCOC(C)(C)C)S(C)(=O)=O)sc2ccccc12` [Compound 366, N-(2-tert-Butoxy-ethyl)-N-(3-methyl-benzo[b]thiophen-2-yl)-methanesulfonamide], under setting [1], the IC50 was found to be 0.04 µM. For the same molecule, the inhibition at 0.2 µM under setting [2] came out at 85%.

In the case of `O=Cc1c(N(Cc2ccc(F)c(C(F)(F)F)c2)S(=O)(=O)c2ccccc2)sc2ccccc12` [Compound 207, N-(4-Fluoro-3-trifluoromethyl-benzyl)-N-(3-formyl-benzo[b]thiophen-2-yl)-benzenesulfonamide], the IC50 under setting [1] came to 0.016 µM. The inhibition at 0.2 µM under setting [2] turned out to be 98%.

Regarding `Cc1c(N(Cc2ccc(S(C)(=O)=O)cc2)S(=O)(=O)c2ccc(C(=O)O)cc2)sc2ccccc12` [Compound 492, N-(3-Methyl-benzo[b]thiophen-2-yl)-N-(4-methylsulfone-benzyl)-4-carboxy-benzenesulfonamide], the IC50 under setting [1] was 0.062 µM. For the same molecule, the “% Inh @ 0.2 (μM)” value under setting [2] was 91%.

Take `Cc1c(N(CCC(F)(F)F)S(=O)(=O)c2ccc(C(=O)O)cc2F)sc2ccccc12` [Compound 590, N-(3-Methyl-benzo[b]thiophen-2-yl)-N-(3,3,3-trifluoro-propyl)-2-fluoro-4-carboxy-benzenesulfonamide]: under setting [1], the 50% inhibitory concentration (IC50) came to 0.0061 µM. Besides, the inhibition at 0.2 µM under setting [2] amounted to 101%.

Turning to `Cc1c(N(Cc2ccc(F)cc2C(F)(F)F)S(=O)(=O)c2ccc(C(=O)O)cc2)sc2ccccc12` [Compound 522, N-(3-Methyl-benzo[b]thiophen-2-yl)-N-(4-fluoro-2-trifluoromethyl-benzyl)-4-carboxy-benzenesulfonamide], under setting [1], the IC50 came out at 0.004 µM. Further, under setting [2], the inhibition at 0.2 µM was found to be 101%.

As for `Cc1c(N(Cc2ccc(OC(F)(F)F)cc2)S(=O)(=O)c2nc3ccccc3n2C)sc2ccccc12` [Compound 746, N-(3-Methyl-benzo[b]thiophen-2-yl)-N-(4-trifluoromethoxy-benzyl)-1-methyl-1H-benzimidazole-2-sulfonamide], the inhibition at 0.2 µM under setting [2] was determined as 31%.

`O=S(=O)(c1ccc(-c2nnn[nH]2)cc1)N(CCC1CC1)c1cc2ccccc2s1` [Compound 569, N-(Benzo[b]thiophen-2-yl)-N-(2-cyclopropyl-ethyl)-4-(1H-tetrazol-5-yl)-benzenesulfonamide]: the IC50 under setting [1] came out at 0.035 µM. Moreover, under setting [2], the inhibition at 0.2 µM came to 88%.

Consider `CCS(=O)(=O)N(CC1CC1)c1sc2ccccc2c1C(C)O` (stereo not drawn) [Compound 281, N-(Cyclopropylmethyl)-N-(3-(1-hydroxyethyl)benzo[b]thiophen-2-yl)-ethanesulfonamide], for which the inhibition at 0.2 µM under setting [2] came to 62%.

With `CCS(=O)(=O)N(CCOC(C)(C)C)c1sc2ccccc2c1Br` [Compound 264, N-(3-Bromo-benzo[b]thiophen-2-yl)-N-(2-tert-butoxy-ethyl)-ethanesulfonamide], under setting [1], the IC50 came out at 0.0341 µM. Moreover, the inhibition at 0.2 µM under setting [2] was found to be 99%.

For the molecule `Cc1c(N(Cc2ccc(OC(F)(F)F)cc2)S(=O)(=O)c2cn(C)cn2)sc2ccccc12` [Compound 11, N-(3-Methyl-benzo[b]thiophen-2-yl)-N-(4-trifluoromethoxy-benzyl)-1-methyl-1H-imidazole-4-sulfonamide], the IC50 under setting [1] was 0.033 µM. For the same molecule, the inhibition at 0.5 µM under setting [3] was 97%.

For the molecule `O=[N+]([O-])c1ccccc1CN(c1cc2ccccc2s1)S(=O)(=O)c1ccccc1` [Compound 55, N-(Benzo[b]thiophen-2-yl)-N-(2-nitro-benzyl)-benzenesulfonamide], the half-maximal inhibitory concentration (IC50) under setting [1] is 0.0655 µM. Besides, under setting [3], the inhibition at 0.5 µM worked out at 99%.
